The source of these data is publication PMC10129394, “PK1 from Drosophila obscurin is an inactive pseudokinase with scaffolding properties” (Open Biology, 2023).

Test [1] has as its target T1, dmObsc-PK1 (Drosophila melanogaster, UniProt A8DYP0).
T1 construct: gene Obsc; pseudokinase domain PK1 plus 40 C-terminal residues (3186-3480); N-terminal His6-3C tag (pOPINF), cleaved with 3C protease; E. coli Rosetta
The experiment in a line: X-ray crystallography, […] Å. To be noted: co-crystallized with 3 mM ATP and 1 mM MgCl2, ADP found in density; no cation observed; pH 9.5; ATP-binding pocket.

Test [2] deals with T1, dmObsc-PK1. The experiment in a line: isothermal titration calorimetry. It counts as binding. In general terms: ITC needs no label: the signal is the heat of the interaction.

T1 sequence (A8DYP0 3186-3480): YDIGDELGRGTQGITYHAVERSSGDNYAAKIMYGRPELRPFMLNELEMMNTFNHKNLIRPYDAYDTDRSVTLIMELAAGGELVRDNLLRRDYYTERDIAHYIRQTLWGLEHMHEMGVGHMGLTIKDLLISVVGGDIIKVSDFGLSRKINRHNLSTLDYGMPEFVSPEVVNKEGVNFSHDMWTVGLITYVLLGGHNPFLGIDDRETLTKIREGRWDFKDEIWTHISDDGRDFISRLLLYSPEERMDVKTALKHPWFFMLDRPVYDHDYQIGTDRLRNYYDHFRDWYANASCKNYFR

Regarding `Nc1ncnc2c1ncn2[C@@H]1O[C@H](COP(=O)(O)OP(=O)(O)O)[C@@H](O)[C@H]1O` [ADP], on dmObsc-PK1 [1], the “X-ray crystallography, 1.90 Å” value is reported as “electron density maps revealed ADP bound to the kinase”.
By Kd is commonly meant the constant that tells how readily two partners part at equilibrium. Read a high Kd as lower affinity. At dmObsc-PK1 [2], `Nc1ncnc2c1ncn2[C@@H]1O[C@H](COP(=O)(O)OP(=O)(O)OP(=O)(O)O)[C@@H](O)[C@H]1O` [ATP] yielded a Kd of 61.8 ± 4.2 µM.
